Experimental data reported in article PMC9650711, “Hydroxyl-Rich Hydrophilic Endocytosis-Promoting Peptide with No Positive Charge” (Journal of the American Chemical Society, 2022).
Numbered stars: 1 amine (or outer) side, 2 acyl side, 3 side chain; on linkers, the order of the positions; unused ones are H or OH. Bridge positions count the residues as written; N and C are the ends. Square brackets hold non-standard residues; d marks the D form. Triazole bridges read from a SMILES are 1,4-linked. Peptide text beside a SMILES is read from it. * marks the point of attachment. RhodamineB = CCN(CC)c1ccc2c(-c3ccccc3C(=O)*)c3ccc(=[N+](CC)CC)cc-3oc2c1; Lys(N3) = [N-]=[N+]=NCCCC[C@H](N)C(=O)O; NMeGABA = CN(CCCC(=O)[*:2])[*:1]; Pra = C#CC[C@H](N)C(=O)O

What was measured:
[1] = test system: U87 cells; test: Cell viability by YOYO staining, flow cytometry; assay type: cell-based, human; details: RB-EPP6 20 nM to 100 μM
Method: Confocal imaging experiments
To image the cells, a Zeiss 880 inverted confocal laser scanning microscope (Carl Zeiss, Germany) was used. Image acquisition and analyses were carried out using the manufacturer’s software (ZEN, Carl Zeiss). Quantification of fluorescence intensity in single cells was performed using Fiji […]
Flow cytometry experiments
To perform flow cytometry experiments, a NovoCyte flow cytometer (NovoExpress) was used.
Quantification of fluorescence intensity was achieved using the Novoxpress software. Fifty thousand cells were analyzed for each condition. A green fluorescent dye used for DNA staining, YOYO, was included in all the flow cytometry experiments, serving as a cell live/dead indicator.
[…]
2 μL of RB-EPP (in DMSO) was added to the solution at a concentration of 500 μM. […] Samples were collected from both phases and quantified by Analytical HPLC separately. […]

[2] = test system: Caco2; test: RB-EPP6 uptake in Caco2 cells; assay type: cell-based; details: RB conjugate
[3] = target: T1, full-length FIBCD1 (Homo sapiens, UniProt Q8N539); test: Fluorescence polarization (FP) assay; assay type: binding; details: RB conjugates 50 nM, 1% BSA/PBST, room temperature 30 min, Hill fit; recombinant full-length FIBCD1 from CHO cells
T1 construct: We overexpressed full-length FIBCD1 in CHO cells, extracted and purified the protein; host or cells: ExpiCHO (CHO) cells
T1 sequence (Q8N539 1-461): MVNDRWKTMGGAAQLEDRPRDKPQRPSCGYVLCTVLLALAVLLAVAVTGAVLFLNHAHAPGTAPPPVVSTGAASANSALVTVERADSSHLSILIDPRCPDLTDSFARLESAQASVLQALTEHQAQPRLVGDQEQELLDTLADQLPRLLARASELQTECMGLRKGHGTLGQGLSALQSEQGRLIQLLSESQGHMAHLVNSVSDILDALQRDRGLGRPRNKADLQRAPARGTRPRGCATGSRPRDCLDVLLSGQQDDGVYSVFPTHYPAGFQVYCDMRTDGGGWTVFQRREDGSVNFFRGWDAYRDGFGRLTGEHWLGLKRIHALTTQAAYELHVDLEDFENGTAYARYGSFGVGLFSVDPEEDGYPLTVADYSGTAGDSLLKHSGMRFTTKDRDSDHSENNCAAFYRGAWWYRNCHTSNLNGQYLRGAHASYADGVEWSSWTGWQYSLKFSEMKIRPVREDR
Method: (§1) experiment. Poly-A selective RNA-seq libraries were prepared using the NEB NextUltra II kit (New England Biolabs) and sequenced on an Illumina NextSeq500 with 2×75 pair-end reads. The obtained sequencing data was preprocessed using fastp, aligned using STAR, and counted using featureCounts. Differentially expressed genes were identified using DESeq2. The sequence data and analysis reports are deposited in the GEO repository (Accession # GSE202764) […]
(§2) U87 cells were incubated with 500 nM RB-EPP6 and YOYO, together with chondroitin sulfate (CSA) in complete media. After 1 h, trypsin was used to detach the cells. Cell pellets were collected by centrifugation. Fresh phenol-free medium was added to each condition. […]
(§3) Human FIBCD1 cDNA with an MYC-DDK tag was ordered from Origene (#RC206180) and was expressed using the mammalian expression system kit ExpiCHOTM (#A29133) as generally described by MAN0014337. […] The obtained full-length FIBCD1 was quantified using BCA.
(§4) Fluorescence polarization (FP) assay
(§5) Solutions of RB-EPPs (in 1% BSA/PBST) were added to different concentrations of full-length FIBCD1 (in 1% BSA/PBST). […] The solutions were incubated at room temperature for 30 minutes on an orbital shaker, and the fluorescence polarization values were quantified using a BioTek Synergy H1 plate reader, with an FP filter set (excitation 530/25, emission 590/35). […]

[4] = test system: MDCK cell monolayers; assay type: in vitro ADME, canine
Method: FIBCD1 Lentiviral target, at different multiplicities of infection (MOI) levels. The cells were then incubated at 37 °C and 5% CO2. After 48 hours, the media was removed and replaced with fresh new media. Cell selection was carried out using G418 (Alfa Aesar) at 1 mg/mL for 7 days, and the surviving cells were collected and analyzed for FIBCD-KO efficiency by western blot. The best candidate was used for the RB-EPP6 uptake experiments described above.
200k MDCK cells were seeded in 200 μL of complete media in the apical side transwell insert (12-well 8 μm pore size Transwell-65 mm). In addition, 1 mL of complete growth media is added to the basolateral chamber. Six transwell inserts were prepared for a TAT peptide labeled with RB (RB-[…]), and six other inserts were prepared for RB-EPP6. The plate was incubated for 2-3 days at 37 °C with 5% CO2. The electrical resistance of the MDCK transwell inserts was measured using the EVOM Epithelial Voltohmmeter to monitor the integrity of tight junctions for the following two days. On day 3, serum-free media was used to wash both the apical (200 μL) and basolateral (1 mL) wells three times. […]
The assay was carried out in apical to basolateral directions. […] After that, 80 μL of the samples were collected from each chamber for RB fluorescence intensity reading using a Synergy […]

[5] = test system: zebrafish larvae; test: Biodistribution in zebrafish larvae, fluorescence microscopy; assay type: in vivo; details: larvae 6 dpf, 1 h incubation; compared with free rhodamine dye and RB-GSQTH control
[6] = test system: U87 cells; test: Resazurin assay, cell viability; assay type: cell-based, human
Method: Time-dependent uptake experiment
U87 cells were incubated with RB-EPP6 at 500 nM for 1 h. After washing with fresh medium once, the cells were kept in the 5% CO2 incubator at 37 °C for desired time durations before […]
Temperature-dependent uptake experiment
U87 cells were kept in a 4 °C cold room for half an hour. After that, cells were incubated with RB-EPP 6 at 500 nM at 4 °C. Cells in the control group were maintained and incubated at 37 °C. After 1 h, cells were washed with fresh medium once before confocal imaging.
All the RB-EPPs were diluted in PBS to 100 μM. 700 μL of the testing peptides were added to the apical chamber of a Corning BioCoat Pre-coated PAMPA Plate. 200 μL PBS was added to the basolateral chamber. The plate was kept at 37 °C with 5% CO2 for 5 h, after which 80 μL samples were collected from each chamber for RB fluorescence intensity reading using the Synergy H1 […]
Endocytosis inhibitors treatment
U87 cells were incubated with different endocytosis inhibitors for 1 h. Then, the media was replaced with fresh media containing 500 nM of RB-EPP6. After 1 h, a trypsin-EDTA solution (0.05%, Sigma) was added to detach the cells. […]
Resazurin was dissolved in DI water at a stock concentration of 6 mg/mL. […] The fluorescence intensity of the samples was recorded by a plate reader at 532 nm excitation and 585 nm emission wavelengths. […]

[7] = test system: RB-EPP6 uptake in U87 cells; test: FIBCD1 competition assay with CSA, RB-EPP6 uptake by flow cytometry; assay type: cell-based, human; details: 500 nM RB-EPP6 together with CSA, 1 h
Method: as §1, §2, §3, §4, §5

Compound	effect on cell viability [1]	uptake in Caco2 cells [2]	Kd [3]	Papp [4]	Papp compared with RB-TAT47–57 [4]	tissue accumulation in zebrafish larvae [5]	effect on cell viability [6]	effect on RB-EPP6 uptake (competitive uptake) [7]
CCN(CC)c1ccc2c(-c3ccccc3C(=O)N(C)CCCC(=O)N[C@H]3Cc4cn(nn4)CCCC[C@@H](C(N)=O)NC(=O)[C@H](CO)NC(=O)[C@H](Cc4ccc(O)cc4)NC(=O)[C@H](Cc4ccc(O)cc4)NC(=O)[C@H](CO)NC(=O)[C@H](Cc4ccc(O)cc4)NC3=O)c3ccc(=[N+](CC)CC)cc-3oc2c1 [RB-EPP6, RB-cy(YSYYS)] (RhodamineB-[NMeGABA][Pra]YSYYS[Lys(N3)]-NH2; triazole 2-8)	without affecting cell viability	did not exhibit EPP6 uptake	~200 nM	5.25 × 10^–6	more than twice	preferentially accumulated in the olfactory pit and neuromasts		
chondroitin sulfate A [CSA]							without affecting cell viability	inhibit RB-EPP6 uptake in a concentration-dependent manner
